Entries after “also recorded” stand apart in the source; their conditions may differ. Like-named read-outs stand apart in the source and are kept apart here.
Experiments:
human spermatozoa = experiment: Motility revival test (Experiment A); type: cell-based; details: human spermatozoa treated at MEC, washed, incubated 30-60 minutes at 37 degree C
Procedure: Human spermatozoa, treated with Ac-B at MEC and BWW control set were washed twice in pre-equilibrated BWW medium, re-suspended in fresh BWW medium and again incubated in a CO2-incubator at 37 degree C. for 30-60 minutes. At the end of the incubation, wet-preparation of spermatozoa was made from each set on a glass slide. The preparation was examined under a phase contrast microscope (at ×400) to note reversal of motility in 10 fields-of-view.

HIV-1 NL-4.3 virus = type: cell-based; details: for Percentage inhibition of hiv growth in CEM-GFP T cell line, Without Pretreatment: untreated virus
Procedure: Human CD4+ T cell line CEM-GFP cells were infected with HIV-1 NL-4.3 virus pretreated without or with Ac-B at varying concentrations (1 hour at 37 degree C.) at a multiplicity of infection (MOI) of 0.01. The cells were then cultured in the presence or absence of Ac-B for up to 7 days post infection. Virus production was analyzed in the culture supernatant on day-7 post infection by p24 antigen capture ELISA

Acaciaside-B [Ac-B]
Revival of motility after washing and re-incubation (human spermatozoa): no sign for revival of motility; also recorded: irreversible
Percentage inhibition of hiv growth in CEM-GFP T cell line, Without Pretreatment (HIV-1 NL-4.3 virus; Ac-B 0.1 microgram per ml, day-7 p24): 0%
Percentage inhibition of hiv growth in CEM-GFP T cell line, Pretreatment with Ac-B (HIV-1 NL-4.3 virus; Ac-B 0.1 microgram per ml, virus pretreated 1 hour at 37 degree C, day-7 p24): 70.5%
Percentage inhibition of hiv growth in CEM-GFP T cell line, Without Pretreatment (HIV-1 NL-4.3 virus; Ac-B 0.2 microgram per ml): 0%
Percentage inhibition of hiv growth in CEM-GFP T cell line, Pretreatment with Ac-B (HIV-1 NL-4.3 virus; Ac-B 0.2 microgram per ml, virus pretreated): 77.8%
Percentage inhibition of hiv growth in CEM-GFP T cell line, Without Pretreatment (HIV-1 NL-4.3 virus; Ac-B 0.25 microgram per ml): 0%
Percentage inhibition of hiv growth in CEM-GFP T cell line, Pretreatment with Ac-B (HIV-1 NL-4.3 virus; Ac-B 0.25 microgram per ml, virus pretreated): 92%
Percentage inhibition of hiv growth in CEM-GFP T cell line, Without Pretreatment (HIV-1 NL-4.3 virus; Ac-B 0.5 microgram per ml): 36.1%
Percentage inhibition of hiv growth in CEM-GFP T cell line, Pretreatment with Ac-B (HIV-1 NL-4.3 virus; Ac-B 0.5 microgram per ml, virus pretreated): 90.6%
Percentage inhibition of hiv growth in CEM-GFP T cell line, Without Pretreatment (HIV-1 NL-4.3 virus; Ac-B 1 microgram per ml): 60.5%
Percentage inhibition of hiv growth in CEM-GFP T cell line, Pretreatment with Ac-B (HIV-1 NL-4.3 virus; Ac-B 1 microgram per ml, virus pretreated): 99.73%
Percentage inhibition of hiv growth in CEM-GFP T cell line, Without Pretreatment (HIV-1 NL-4.3 virus; Ac-B 1.5 microgram per ml): 100%
Percentage inhibition of hiv growth in CEM-GFP T cell line, Pretreatment with Ac-B (HIV-1 NL-4.3 virus; Ac-B 1.5 microgram per ml, virus pretreated): 100%
Percentage inhibition of hiv growth in CEM-GFP T cell line, Without Pretreatment (HIV-1 NL-4.3 virus; Ac-B 2 microgram per ml): 100%
Percentage inhibition of hiv growth in CEM-GFP T cell line, Pretreatment with Ac-B (HIV-1 NL-4.3 virus; Ac-B 2 microgram per ml, virus pretreated): 100%
Percentage inhibition of hiv growth in CEM-GFP T cell line, Without Pretreatment (HIV-1 NL-4.3 virus; Ac-B 2.5 microgram per ml): 100%
Percentage inhibition of hiv growth in CEM-GFP T cell line, Pretreatment with Ac-B (HIV-1 NL-4.3 virus; Ac-B 2.5 microgram per ml, virus pretreated): 100%
Inhibition of viral transmission, untreated virus (HIV-1 NL-4.3 virus; cells infected with untreated virus, cultured in the presence of Ac-B 0.1 to 2.5 microgram per ml): only partial inhibition
